Key:
Assay type in all cases: functional
Mus musculus [1] = test: Antidepressant activity by injecting 20 mg/kg of compound intraperitoneally and measuring the ability to prevent tetrabenazine (TBZ) induced ptosis in mice.; conditions: ip, route intraperitoneal
Mus musculus [2] = test: Analgesic activity by injecting compound subcutaneously and measuring the inhibition of phenyl-p-benzoquinone-induced writhing (PQW) in mice.; conditions: sc
Mus musculus [3] = test: Antidepressant activity by injecting compound intraperitoneally and measuring the ability to prevent tetrabenazine (TBZ) induced ptosis in mice.; conditions: ip
Mus musculus [4] = organism: Mus musculus; test: Antidepressant activity by injecting compound perorally and measuring the ability to prevent tetrabenazine (TBZ) induced ptosis in mice.

| SMILES | inhibition in vivo at 20 mg/kg (Mus musculus [1]) [%] | ED50 (Mus musculus [2]) [mg/kg] | ED50 (Mus musculus [3]) [mg/kg] | ED50 (Mus musculus [4]) [mg/kg] |
| --- | --- | --- | --- | --- |
| CN1CCC2(CC1)CN1c3ccccc3N=Cc3cccc2c31 | 20 |  |  |  |
| CN1CCC2(CC1)CN(c1ccccc1N)c1ccccc12 |  | 11.6 | 4 | 1.9 |
| CC1=Nc2ccccc2N2CC3(CCN(C)CC3)c3cccc1c32.Cl.Cl | 50 | 4.7 |  |  |
| CC1Nc2ccccc2N2CC3(CCN(C)CC3)c3cccc1c32.Cl.Cl (stereo not drawn) | 20 | 9.73 |  |  |
